# In ChEMBL document CHEMBL5108060, “Discovery, Characterization, and Structure-Based Optimization of Small-Molecule In Vitro and In Vivo Probes for Human DNA Polymerase Theta” (J Med Chem, 2022):
# Key:
# DNA polymerase theta [1] = biological target: T1, DNA polymerase theta (Homo sapiens, UniProt O75417); assay: Inhibition of recombinant human full length DNA polymerase theta using DNA substrate measured after 1 hrs in presence of dNTPs by plate reader assay
# [2] = Metabolic stability in mouse liver microsomes assessed as intrinsic clearance; type: ADME, Microsome; conditions: read-out: CLH
# DLD-1 [3] = assay: Antiproliferative activity against human BRCA-2 deficient DLD-1 cells; type: functional, cell-based
# [4] = Inhibition of microhomology-mediated end joining in HEK293 cells; type: functional, cell-based, Homo sapiens
# DNA polymerase theta [5] = biological target: T1, DNA polymerase theta; assay: Displacement of tracer from recombinant Tb-labeled DNA polymerase theta (unknown origin) assessed as end point Kd using DNA as substrate preincubated for 30 mins followed by compound addition for 2 hrs by HTRF assay
# DLD-1 [6] = assay: Antiproliferative activity against human DLD-1 cells; type: functional, cell-based
# DNA polymerase theta [7] = biological target: T1, DNA polymerase theta; assay: Displacement of tracer from recombinant Tb-labeled DNA polymerase theta (unknown origin) using DNA as substrate preincubated for 30 mins followed by compound addition for 2 hrs by HTRF assay
# [8] = Lipophilicity, logD of compound; type: physicochemical; conditions: octanol/water
# [9] = Thermodynamic solubility of the compound; type: physicochemical; conditions: read-out: Therm_solubility
# DNA polymerase theta [10] = biological target: T1, DNA polymerase theta; assay: Inhibition of human full length DNA polymerase theta ATPase activity by ADP-Glo assay
# T1 sequence (O75417 whole entry): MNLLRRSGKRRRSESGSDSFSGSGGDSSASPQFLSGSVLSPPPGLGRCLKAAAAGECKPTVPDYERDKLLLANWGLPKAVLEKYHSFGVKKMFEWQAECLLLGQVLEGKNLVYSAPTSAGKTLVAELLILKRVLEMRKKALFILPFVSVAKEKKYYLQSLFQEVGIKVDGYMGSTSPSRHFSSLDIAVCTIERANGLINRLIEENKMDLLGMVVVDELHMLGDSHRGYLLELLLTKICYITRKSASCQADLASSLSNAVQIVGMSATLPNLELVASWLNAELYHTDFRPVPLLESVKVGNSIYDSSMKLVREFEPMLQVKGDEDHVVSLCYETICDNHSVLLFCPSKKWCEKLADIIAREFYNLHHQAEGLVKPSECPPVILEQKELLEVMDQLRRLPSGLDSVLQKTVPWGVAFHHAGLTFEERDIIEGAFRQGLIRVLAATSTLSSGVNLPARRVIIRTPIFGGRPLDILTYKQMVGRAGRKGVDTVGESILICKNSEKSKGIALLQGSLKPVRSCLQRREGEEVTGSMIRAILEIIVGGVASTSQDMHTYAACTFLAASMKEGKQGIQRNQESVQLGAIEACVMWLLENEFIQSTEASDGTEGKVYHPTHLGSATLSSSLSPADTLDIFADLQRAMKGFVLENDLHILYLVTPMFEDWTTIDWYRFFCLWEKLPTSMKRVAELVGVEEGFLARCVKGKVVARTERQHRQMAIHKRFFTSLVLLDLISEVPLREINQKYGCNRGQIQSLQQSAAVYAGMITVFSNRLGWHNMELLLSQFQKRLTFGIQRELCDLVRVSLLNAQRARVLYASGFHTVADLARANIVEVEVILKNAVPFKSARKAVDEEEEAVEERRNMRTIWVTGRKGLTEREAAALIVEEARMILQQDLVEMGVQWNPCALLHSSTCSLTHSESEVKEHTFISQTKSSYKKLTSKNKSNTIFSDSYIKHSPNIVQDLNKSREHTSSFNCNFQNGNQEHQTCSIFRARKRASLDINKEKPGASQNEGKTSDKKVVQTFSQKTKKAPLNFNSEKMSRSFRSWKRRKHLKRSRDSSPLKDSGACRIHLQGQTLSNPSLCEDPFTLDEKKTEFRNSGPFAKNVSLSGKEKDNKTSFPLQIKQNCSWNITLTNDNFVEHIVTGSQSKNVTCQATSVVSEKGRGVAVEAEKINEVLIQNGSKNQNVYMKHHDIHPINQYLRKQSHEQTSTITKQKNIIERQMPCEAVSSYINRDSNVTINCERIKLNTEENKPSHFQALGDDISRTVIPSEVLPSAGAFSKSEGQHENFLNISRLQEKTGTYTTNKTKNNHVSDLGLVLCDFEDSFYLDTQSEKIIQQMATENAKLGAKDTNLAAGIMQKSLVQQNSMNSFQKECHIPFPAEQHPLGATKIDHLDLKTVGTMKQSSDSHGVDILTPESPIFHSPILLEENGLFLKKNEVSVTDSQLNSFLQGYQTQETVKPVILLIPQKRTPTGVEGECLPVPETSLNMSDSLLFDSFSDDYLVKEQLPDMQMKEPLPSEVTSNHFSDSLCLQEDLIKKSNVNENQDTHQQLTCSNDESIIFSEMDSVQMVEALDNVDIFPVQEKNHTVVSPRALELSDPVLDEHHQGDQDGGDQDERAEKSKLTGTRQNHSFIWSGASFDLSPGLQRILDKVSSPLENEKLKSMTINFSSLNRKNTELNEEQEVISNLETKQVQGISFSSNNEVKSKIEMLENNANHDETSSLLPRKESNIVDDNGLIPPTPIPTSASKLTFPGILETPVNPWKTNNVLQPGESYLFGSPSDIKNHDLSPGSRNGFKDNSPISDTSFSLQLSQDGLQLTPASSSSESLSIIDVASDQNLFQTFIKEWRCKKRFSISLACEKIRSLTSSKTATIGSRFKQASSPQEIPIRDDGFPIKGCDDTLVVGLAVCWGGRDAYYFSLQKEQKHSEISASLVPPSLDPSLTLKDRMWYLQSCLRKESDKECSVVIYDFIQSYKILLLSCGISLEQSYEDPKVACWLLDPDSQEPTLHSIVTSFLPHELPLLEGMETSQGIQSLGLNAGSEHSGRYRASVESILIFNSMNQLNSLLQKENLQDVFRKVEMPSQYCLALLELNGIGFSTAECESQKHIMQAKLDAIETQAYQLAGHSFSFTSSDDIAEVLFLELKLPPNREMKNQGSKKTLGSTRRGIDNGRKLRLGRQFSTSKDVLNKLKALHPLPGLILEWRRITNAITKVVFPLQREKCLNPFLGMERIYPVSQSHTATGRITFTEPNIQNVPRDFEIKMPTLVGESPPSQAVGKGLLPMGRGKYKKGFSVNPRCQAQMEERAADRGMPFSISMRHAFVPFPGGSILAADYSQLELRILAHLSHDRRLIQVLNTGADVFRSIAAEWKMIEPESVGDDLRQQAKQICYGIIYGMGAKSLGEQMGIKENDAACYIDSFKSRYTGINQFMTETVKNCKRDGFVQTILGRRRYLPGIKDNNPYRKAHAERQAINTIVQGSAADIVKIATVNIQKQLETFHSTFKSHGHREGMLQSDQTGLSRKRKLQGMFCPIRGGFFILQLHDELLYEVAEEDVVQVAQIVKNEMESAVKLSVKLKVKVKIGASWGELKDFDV
SMILES,IC50 (DNA polymerase theta [1]) [nM],microsomal CLint [2] [µL/min/mg],EC50 (DLD-1 [3]) [nM],EC50 (DLD-1 [6]) [nM],also measured
Cc1cc(C(F)(F)F)cc(N2C(=O)OC[C@H]2C(=O)N(C)c2ccc(F)c(C)c2F)n1,4.1,818,–,–,–
CCN(C(=O)[C@@H](C)Nc1nc(C)cc(C(F)(F)F)c1C#N)c1cccc(C)c1,5100,–,–,–,–
Cc1cccc(N(C)C(=O)[C@@H]2[C@@H](O)CCN2c2nc(C)cc(C(F)(F)F)c2C#N)c1,–,–,3000,> 12000,EC50 [4]: 320 nM; Kd (DNA polymerase theta [5]): 42 nM; Kd (DNA polymerase theta [7]): 24 nM
CCN(C(=O)[C@@H]1COCCN1c1nc(C)cc(C(F)(F)F)c1C#N)c1cccc(C)c1,2700,–,–,–,–
CCN(C(=O)COc1nc(C)c(Br)c(C)c1C#N)c1cccc(C)c1,1500,–,–,–,–
Cc1cc(C(F)(F)F)cc(N2C(=O)OC[C@H]2C(=O)N(C)c2cc(Cl)ccc2F)n1,–,157,–,–,–
Cc1cc(C(F)(F)F)c(C#N)c(N2C[C@@H](O)C[C@H]2C(=O)N(C)c2ccccc2)n1,–,–,8000,> 12000,EC50 [4]: 400 nM; Kd (DNA polymerase theta [5]): 110 nM
CCN(C(=O)[C@H](C)Nc1nc(C)cc(C(F)(F)F)c1C#N)c1cccc(C)c1,29,–,–,–,–
Cc1cc(C(F)(F)F)cc(N2C(=O)OC[C@H]2C(=O)N(C)c2cc(Cl)c(F)cc2F)n1,–,98,–,–,–
Cc1cc(C(F)(F)F)cc(N2C(=O)OC[C@H]2C(=O)N(C)c2ccc(F)c(Cl)c2F)n1,5.4,210,–,–,–
CCN(C(=O)[C@H](C)Nc1nc(C)cc(C)c1C#N)c1cccc(C)c1,230,–,–,–,–
Cc1cc(C(F)(F)F)cc(N2C(=O)OC[C@H]2C(=O)N(C)c2ccc(F)c(Cl)c2)n1,15,138,–,–,–
CCN(C(=O)COc1nc(C)cc(C(F)(F)F)c1C#N)c1cccc(C)c1,500,–,> 12000,> 12000,EC50 [4]: 680 nM; Kd (DNA polymerase theta [5]): 61 nM
Cc1cc(C(F)(F)F)cc(N2C(=O)[C@H](O)[C@H](O)[C@@H]2C(=O)N(C)c2ccc(F)c(Cl)c2)n1,> 12000,–,> 12000,> 12000,–
Cc1cc(C(F)(F)F)cc(N2C(=O)OC[C@H]2C(=O)N(C)c2ccc(F)c(C)c2)n1,9.4,404,–,–,–
Cc1cccc(N(C)C(=O)[C@@H]2C[C@H](O)CN2c2nc(C)cc(C)c2C#N)c1,–,–,4100,> 12000,EC50 [4]: 280 nM; Kd (DNA polymerase theta [5]): 51 nM; Kd (DNA polymerase theta [7]): 19 nM
Cc1cccc(N(C)C(=O)[C@@H]2C[C@H](O)CN2c2nc(C)cc(C(F)(F)F)c2C#N)c1,–,–,2300,> 12000,logD [8]: 3.6; EC50 [4]: 205 nM
Cc1cccc(N(C)C(=O)[C@@H]2CCC(=O)N2c2cc(C(F)(F)F)cc(C)n2)c1,6.8,> 1000,–,–,logD [8]: 3.7
CCN(C(=O)COc1cc(C)cc(C)n1)c1cccc(C)c1,4200,–,–,–,–
Cc1cccc(N(C)C(=O)[C@@H]2COC(=O)N2c2cc(C(F)(F)F)cc(C)n2)c1,–,580,–,–,logD [8]: 3.6
Cc1cccc(N(C)C(=O)[C@@H]2[C@H](O)CCN2c2nc(C)cc(C(F)(F)F)c2C#N)c1,–,> 1500,800,> 12000,logD [8]: 3.5; EC50 [4]: 180 nM; Kd (DNA polymerase theta [5]): 6.4 nM; solubility thermodynamic [9]: 381 µM; IC50 (DNA polymerase theta [10]): > 12000 nM; Kd (DNA polymerase theta [7]): 4.8 nM
